From DBAASP
In brackets after ≈: the same amount, converted by molar mass.

Columns and labels:
Test in all cases: ≥ marks a high value that may be exact or a test limit, other limits are often not marked, values filed in µg/mL are converted to µM
[1] = test system: Bacillus subtilis CCT 2471
Bacillus thuringiensis = test system: Bacillus thuringiensis
[2] = test system: Enterobacter cloacae ATCC 23355
[3] = test system: Escherichia coli ATCC 25922
[4] = test system: Escherichia coli CCT 1371
Proteus mirabilis = test system: Proteus mirabilis
[5] = test system: Pseudomonas aeruginosa ATCC 15442
[6] = test system: Staphylococcus aureus ATCC 25923
[7] = test system: Staphylococcus aureus ATCC 6538
[8] = test system: Staphylococcus epidermidis
[9] = test system: Staphylococcus saprophyticus
[10] = test system: Carnobacterium maltaromaticum UI49
[11] = test system: Lacticaseibacillus casei NCDO 2713
[12] = test system: Lacticaseibacillus casei subsp. casei NCDO 161
[13] = test system: Lactiplantibacillus plantarum 965
[14] = test system: Lactiplantibacillus plantarum UI50
[15] = test system: Latilactobacillus curvatus 89
[16] = test system: Latilactobacillus sakei 706
[17] = test system: Latilactobacillus sakei NCDO 2714
[18] = test system: Pediococcus acidilactici CH
[19] = test system: Pediococcus pentosaceus NCDO 990
[20] = test system: Pediococcus pentosaceus Pac1.0
[21] = test system: Weissella viridescens NCDO 1655
[22] = test system: Candida albicans NCTC 3179
[23] = test system: Enterococcus faecalis NCTC 12697
[24] = test system: Escherichia coli ATCC 25726
[25] = test system: Fusobacterium nucleatum NCTC 10562
[26] = test system: Pseudomonas aeruginosa ATCC 27853
[27] = test system: Pseudomonas aeruginosa PAO239
[28] = test system: Streptococcus mutans ATCC 10449
[29] = test system: Acinetobacter baumannii ATCC BAA-747
[30] = test system: Candida albicans ATCC 10231
[31] = test system: Candida albicans ATCC 2002
[32] = test system: Enterococcus faecium NTCC 12697
[33] = test system: Escherichia coli ATCC 8739
[34] = test system: Escherichia coli ATCC BAA-2340
[35] = test system: Escherichia coli NCTC 13846
[36] = test system: Klebsiella pneumoniae ATCC 43816
[37] = test system: Pseudomonas aeruginosa ATCC 9027
[38] = test system: Pseudomonas aeruginosa CMCCB 10104
[39] = test system: Staphylococcus aureus NCTC 12493
[40] = test system: Acinetobacter baumannii 1980
[41] = test system: Acinetobacter baumannii 2982
[42] = test system: Acinetobacter baumannii 4956
[43] = test system: Acinetobacter baumannii ATCC 19606
[44] = test system: Acinetobacter baumannii I NM8
Escherichia coli 780 = test system: Escherichia coli 780
Escherichia coli 850 = test system: Escherichia coli 850
[45] = test system: Klebsiella pneumoniae ATCC 700603
[46] = test system: Pseudomonas aeruginosa 2760
[47] = test system: Pseudomonas aeruginosa 9132
[48] = test system: Staphylococcus aureus 725
[49] = test system: Staphylococcus aureus 936

With `CC[C@H](C)[C@H](NC(=O)CNC(=O)[C@H](CCCCN)NC(=O)[C@H](CC(C)C)NC(=O)[C@H](CC(N)=O)NC(=O)[C@@H](N)CC(C)C)C(=O)N[C@@H](Cc1ccccc1)C(=O)N[C@@H](CCCCN)C(=O)N[C@@H](CCCCN)C(=O)N[C@H](C(=O)N[C@@H](C)C(=O)N[C@@H](CO)C(=O)N[C@@H](CC(C)C)C(=O)N[C@@H](CC(C)C)C(=O)N[C@H](C(=O)O)[C@@H](C)O)C(C)C` [LNLKGIFKKVASLLT] the MIC [1] was at least 60 µM, the MIC (Bacillus thuringiensis) was at least 60 µM and the MIC [2] was at least 60 µM. It also gave an MIC [3] of 6 µM (≈ 9.87 µg/mL), an MIC [4] of 6 µM (≈ 9.87 µg/mL) and an MIC (Proteus mirabilis) of at least 60 µM. The MIC [5] was 30 µM (≈ 49.4 µg/mL), the MIC [6] was 6 µM (≈ 9.87 µg/mL) and the MIC [7] was over 60 µM. For the same compound, the MIC [8] was at least 60 µM and the MIC [9] was 6 µM (≈ 9.87 µg/mL).
`CC[C@H](C)[C@H](NC(=O)[C@H](C)NC(=O)[C@@H](NC(=O)[C@H](C)NC(=O)CNC(=O)[C@H](CCSC)NC(=O)[C@H](CCC(N)=O)NC(=O)[C@H](CC(C)C)NC(=O)[C@H](CO)NC(=O)[C@H](Cc1ccc(O)cc1)NC(=O)[C@H](C)NC(=O)[C@H](CO)NC(=O)[C@H](CO)NC(=O)[C@@H](N)CCCCN)[C@@H](C)O)C(=O)N[C@@H](CCCCN)C(=O)N[C@@H](CCC(N)=O)C(=O)N[C@H](C(=O)N[C@@H](CCCCN)C(=O)N[C@@H](CCCCN)C(=O)N[C@@H](CC(C)C)C(=O)N[C@@H](Cc1ccccc1)C(=O)N[C@@H](CCCCN)C(=O)N[C@@H](CCCCN)C(=O)N[C@@H](Cc1c[nH]c2ccccc12)C(=O)NCC(=O)N[C@@H](Cc1c[nH]c2ccccc12)C(=O)O)C(C)C` [KSSAYSLQMGATAIKQVKKLFKKWGW] gave an MIC [10] of 6 µM (≈ 17.9 µg/mL), an MIC [11] of 6 µM (≈ 17.9 µg/mL) and an MIC [12] of 0.25 µM (≈ 0.746 µg/mL). For the same compound, the MIC [13] was 0.3 µM (≈ 0.896 µg/mL), the MIC [14] was 6 µM (≈ 17.9 µg/mL) and the MIC [15] was 0.5 µM (≈ 1.49 µg/mL). The MIC [16] was 0.5 µM (≈ 1.49 µg/mL), the MIC [17] was 0.06 µM (≈ 0.179 µg/mL) and the MIC [18] was 0.5 µM (≈ 1.49 µg/mL). The MIC [19] was 6 µM (≈ 17.9 µg/mL), the MIC [20] was 0.1 µM (≈ 0.299 µg/mL) and the MIC [21] was 0.02 µM (≈ 0.0597 µg/mL).
Work on `CC[C@H](C)[C@H](NC(=O)CNC(=O)CNC(=O)[C@@H](NC(=O)[C@H](Cc1ccccc1)NC(=O)[C@H](C)NC(=O)[C@H](CCCCN)NC(=O)CNC(=O)[C@H](Cc1ccccc1)NC(=O)[C@H](CCCCN)NC(=O)CNC(=O)[C@H](CC(C)C)NC(=O)[C@H](CO)NC(=O)[C@H](Cc1cnc[nH]1)NC(=O)[C@H](C)NC(=O)[C@H](Cc1ccccc1)NC(=O)[C@H](CCC(=O)O)NC(=O)[C@H](CCCCN)NC(=O)[C@@H](NC(=O)CN)[C@@H](C)CC)C(C)C)C(=O)N[C@@H](CC(C)C)C(=O)N[C@@H](CC(N)=O)C(=O)N[C@@H](CCC(N)=O)C(=O)O` [GIKEFAHSLGKFGKAFVGGILNQ] yielded an MIC [22] of at least 100 µM, an MIC [23] of at least 100 µM and an MIC [24] of at least 50 µM. The MIC [3] was over 200 µM, the MIC [25] was 12.5 µM (≈ 30.2 µg/mL) and the MIC [26] was over 100 µM. For the same compound, the MIC [27] was at least 100 µM, the MIC [6] was over 200 µM and the MIC [28] was at least 50 µM.
Compound `CC[C@H](C)[C@H](NC(=O)[C@H](CC(N)=O)NC(=O)[C@@H](NC(=O)[C@H](C)N)C(C)C)C(=O)N1CCC[C@H]1C(=O)N[C@@H](Cc1ccccc1)C(=O)N[C@@H](CCCCN)C(=O)N[C@H](C(=O)N[C@@H](Cc1cnc[nH]1)C(=O)N[C@@H](Cc1ccccc1)C(=O)N[C@@H](CCCN=C(N)N)C(=O)N[C@H]1CSSC[C@@H](C(=O)O)NC(=O)[C@H](Cc2ccccc2)NC(=O)[C@H](C)NC(=O)[C@H](C)NC(=O)[C@H](CCCCN)NC1=O)C(C)C` [AVNIPFKVHFRCKAAFC] has an MIC [29] of at least 512 µM, an MIC [30] of over 512 µM and an MIC [31] of 10.4 µM (≈ 20.2 µg/mL). It also gave an MIC [32] of at least 512 µM, an MIC [3] of 10.4 µM (≈ 20.2 µg/mL) and an MIC [33] of at least 32 µM. For the same compound, the MIC [34] was at least 32 µM, the MIC [35] was at least 32 µM and the MIC [36] was at least 64 µM. It also gave an MIC [37] of 64 µM (≈ 125 µg/mL), an MIC [38] of 20.7 µM (≈ 40.4 µg/mL) and an MIC [6] of 5.18 µM (≈ 10.1 µg/mL). It also gave an MIC [7] of over 512 µM and an MIC [39] of at least 256 µM.
For `CC(C)C[C@H](NC(=O)[C@@H](NC(=O)[C@H](CC(N)=O)NC(=O)[C@H](C)NC(=O)CNC(=O)[C@H](CC(C)C)NC(=O)[C@H](CCCN=C(N)N)NC(=O)[C@H](CC(C)C)NC(=O)[C@H](C)NC(=O)[C@H](CCCCN)NC(=O)CNC(=O)[C@H](CC(C)C)NC(=O)[C@H](CC(C)C)NC(=O)[C@H](CO)NC(=O)CNC(=O)[C@H](Cc1ccccc1)NC(=O)CN)C(C)C)C(N)=O` [GFGSLLGKALRLGANVL], the MIC [40] was 9.49 µM (≈ 16 µg/mL), the MIC [41] was 2.37 µM (≈ 4 µg/mL) and the MIC [42] was 9.49 µM (≈ 16 µg/mL). The MIC [43] was 4.74 µM (≈ 8 µg/mL), the MIC [44] was 3 µM (≈ 5.06 µg/mL) and the MIC (Escherichia coli 780) was 4.74 µM (≈ 8 µg/mL). The MIC (Escherichia coli 850) was 9.49 µM (≈ 16 µg/mL), the MIC [24] was 6 µM (≈ 10.1 µg/mL) and the MIC [3] was 4.74 µM (≈ 8 µg/mL). The MIC [45] was 25 µM (≈ 42.1 µg/mL), the MIC [46] was at least 75.9 µM and the MIC [47] was at least 38 µM. For the same compound, the MIC [26] was 25 µM (≈ 42.1 µg/mL), the MIC [48] was 4.74 µM (≈ 8 µg/mL) and the MIC [49] was 19 µM (≈ 32 µg/mL).
